Test results: ChEMBL document CHEMBL4706574, “Preparation, characterization, antioxidant evaluation of new curcumin derivatives and effects of forming HSA-bound nanoparticles on the stability and activity” (Eur J Med Chem, 2020)
Active and inactive are the calls of the source. The calls are words filed in the database; no cut-off is given here.

How the values were obtained:
PC-12 [1] = assay: Cytoprotective activity against H2O2-induced cell death in […] assessed as cell viability at 30 to 100 uM incubated for 0.5 hrs followed by H2O2 stimulation and measured after 2 hrs by MTT assay; assay type: functional, cell-based; settings: dose 30-100 µM, time 2.5 hrs
[2] = Cytoprotective activity against H2O2-induced cell death in […] assessed as cell viability at 30 uM incubated for 0.5 hrs followed by H2O2 stimulation and measured after 2 hrs by MTT assay relative to control; assay type: functional; settings: Rattus norvegicus, time 2.5 hrs, read-out: Activity
PC-12 [3] = assay: Cytoprotective activity against H2O2-induced cell death in […] assessed as cell viability at 0.1 uM incubated for 0.5 hrs followed by H2O2 stimulation and measured after 2 hrs by MTT assay; assay type: functional, cell-based; settings: time 2.5 hrs
PC-12 [4] = assay: Cytoprotective activity against H2O2-induced cell death in […] assessed as cell viability at 10 uM incubated for 0.5 hrs followed by H2O2 stimulation and measured after 2 hrs by MTT assay; assay type: functional, cell-based; settings: time 2.5 hrs
PC-12 [5] = assay: Cytoprotective activity against H2O2-induced cell death in […] assessed as cell viability at 100 uM incubated for 0.5 hrs followed by H2O2 stimulation and measured after 2 hrs by MTT assay; assay type: functional, cell-based; settings: Rattus norvegicus, time 2.5 hrs
HCT-116 = assay: Antiproliferative activity against human HCT-116 cells assessed as cell viability at 10 uM incubated for 48 hrs by MTT assay (reference value: 100 %); assay type: functional; settings: read-out: Activity
HepG2 = assay: Antiproliferative activity against human HepG2 cells assessed as cell viability at 10 uM incubated for 48 hrs by MTT assay (reference value: 100 %); assay type: functional; settings: read-out: Activity
[6] = Stability of compound in PBS buffer at pH 7.4 incubated for 48 hrs by UV-vis spectrophotometry; assay type: physicochemical; settings: pH 7.4, 48 h
K562 = assay: Antiproliferative activity against human K562 cells assessed as cell viability at 10 uM incubated for 48 hrs by MTT assay (reference value: 100 %); assay type: functional; settings: read-out: Activity

SMILES	Activity (PC-12 [1]; Rattus norvegicus)	viability at 30 µM [2] [%]	Activity (PC-12 [5])	other results
C=CCc1cc(/C=C/c2cc(/C=C/c3cc(CC=C)c(O)c(OC)c3)[nH]n2)cc(OC)c1O	Active	–	–	–
C=CCc1cc(/C=C/c2cc(/C=C/c3cc(CC=C(C)C)c(O)c(OC)c3)n[nH]2)cc(OC)c1O	Active	–	–	–
C=CCc1cc(/C=C/C(O)=C/C(=O)/C=C/c2cc(CC=C(C)C)c(O)c(OC)c2)cc(OC)c1O	Active	100	–	Activity (PC-12 [3]): Active
COc1cc(/C=C/c2cc(/C=C/c3cc(CC=C(C)C)c(O)c(OC)c3)n[nH]2)ccc1O	Active	–	–	–
C=CCc1cc(/C=C/c2cc(/C=C/c3ccc(O)c(OC)c3)[nH]n2)cc(OC)c1O	Active	–	–	–
C=CCc1cc(/C=C/C(=O)/C=C(O)/C=C/c2cc(CC=C)c(O)c(OC)c2)cc(OC)c1O	Active	100	–	Activity (PC-12 [3]): Active
Oc1ccc(/C=C/c2cc(O)cc(O)c2)cc1	Active	–	–	Activity (PC-12 [4]): inactive
O=C(O)c1cc(O)c(O)c(O)c1	–	–	–	Activity (PC-12 [4]): inactive; Activity (PC-12 [1]): Active
C=CCc1cc(/C=C/C(=O)/C=C(O)/C=C/c2ccc(O)c(OC)c2)cc(OC)c1O	Active	100	inactive	–
COc1cc(/C=C/C(=O)/C=C(O)/C=C/c2cc(CC=C(C)C)c(O)c(OC)c2)cc(CC=C(C)C)c1O	Active	100	Active	viability at 10 µM (HCT-116): 61.1%; viability at 10 µM (HepG2): 64.3%; Stabilty [6]: Unstable; viability at 10 µM (K562): 64.3%; Activity (PC-12 [3]): Active
COc1cc(/C=C/C(=O)CC(=O)/C=C/c2ccc(O)c(OC)c2)ccc1O [CURCUMIN]	Active	–	–	viability at 10 µM (HCT-116): 10.3%; viability at 10 µM (HepG2): 58.8%; Stabilty [6]: Unstable; viability at 10 µM (K562): 65.4%
COc1cc(/C=C/C(O)=C/C(=O)/C=C/c2cc(CC=C(C)C)c(O)c(OC)c2)ccc1O	Active	100	inactive	–
COc1cc(/C=C/c2cc(/C=C/c3cc(CC=C(C)C)c(O)c(OC)c3)[nH]n2)cc(CC=C(C)C)c1O	Active	100	inactive	–
